{"source": "patent US11019823B2", "about": "“Method of controlling water surface inhabiting pests” (SHA'KED MICROBIAL SOLUTIONS LTD., priority 2013, dated 2021)", "key": {"[1]": {"tested_on": "Culex quinquefasciatus eggs", "test": "Mosquito egg bioassay in spot plates, probit analysis", "assay_type": "in vivo", "experimental": "Mosquito eggs were obtained from the Center for Disease control in Fort Collins, Colo. The eggs were counted and transferred to spot plates containing 8 ml of NaDCC anhydrous solution at 0, 50, 500, 5000, and 50,000 ppm. Each treatment concentration and control (0 ppm) was replicated 3 times within the same spot plate and transferred to an incubator set for 30° C. and 12 hrs of light and dark alterations for 25 hours. […] Larvae were counted as living, hatched dead, or unhatched dead 25 hrs after the bioassay was initiated. Larvae were only counted as hatched if they were completely free from their egg casing. Data were analyzed by probit analysis with the PROBIT Procedure in SAS (Version 9.2, Cary N.C.), producing an LC95 and natural response rate."}, "Anopheles stevensi eggs": {"tested_on": "Anopheles stevensi eggs", "settings": "72 hrs, 30° C., probit analysis", "experimental": "Data were analyzed by probit analysis with the PROBIT Procedure in SAS (Version 9.2, Cary N.C.)."}, "A. aegypti eggs": {"tested_on": "A. aegypti eggs", "test": "Mosquito egg bioassay in spot plates, probit analysis", "assay_type": "in vivo, Aedes aegypti", "experimental": "A. aegypti eggs were obtained from the Center for Disease control in Fort Collins, Colo. The eggs were counted and transferred to spot plate treatment or control wells, and placed in an incubator. Larvae were counted as living, hatched dead, or unhatched dead 72 hours after the bioassay was initiated. […] The LC95 for A. aegypti was 470 ppm."}, "[2]": {"tested_on": "Non-biting midge eggs (Chironomidae: Tanypodinae)", "settings": "a week, 30° C., probit analysis", "experimental": "Non-biting midge eggs (Chironomidae: Tanypodinae) were obtained from the pond at Town Park, Auburn, Ala. The eggs were counted and transferred to spot plates containing 8 ml of NaDCC anhydrous solution at 0, 50, 500, 5000, and 50,000 ppm. Each treatment and control was replicated 3 times within the same spot plate and transferred to an incubator set for 30° C. and 12 hours of light and dark alterations for a week. Data were analyzed by probit analysis with the PROBIT Procedure in SAS (Version 9.2, Cary N.C.). Larvae were only counted as hatched if they were completely free from their egg casing."}, "[3]": {"test": "Dissolution study: release of free available chlorine / NaDCC from floating pellets in deionized water (orthotolidine colorimetry, 436 nm)", "assay_type": "physicochemical", "experimental": "The ability of the pellet to release free available chlorine from the water soluble NaDCC was measured over time using a colorimeric method. Three pellets were selected at random from the kilogram batch that was created. The dimensions and mass of each pellet was recorded and the pellets were added to an 800 ml high density polyethylene (HDPE) beaker filled with deionized water and covered with aluminum foil. NaDCC (0.1975 g) was added to a separate 800 ml plastic beaker as a control. 0.8 ml aliquots of each solution were pipetted into 50 ml volumetic flasks and brought to volume with deionized water. 10 ml aliquots of these diluted solutions were mixed with 100 μl of 0.1% orthotolidine in a vial, forming a clear, yellow solution. The solution was loaded into a cuvette and was analyzed using a Shimadzu UV160U UV-Vis Spectrophotometer at 436 nm.\nInitial sample pulls occurred 15 minutes after the pellets and control sample were added to the water. Additional pulls were taken at about 2, 9, 11, 13, 15, 17, 24, and 36 hours.\nUpon exposure to water, NaDCC breaks down to release free available chlorine that acts as an algae growth inhibitor. Orthotolidine reacts with the chlorine causing a color change allowing for colorimetic analysis to chart the dissolution of the NaDCC. The concentration of NaDCC released at each time point was calculated by constructing a calibration curve relating the free available chlorine response to the initial concentration of NaDCC. The initial concentration of NaDCC calculation is shown in Equation 1. The original aliquot of the control taken at the 15 minute mark was used to create standards ranging from 25-250 ppm. Concentration of initial NaDCC=initial mass of NaDCC/volume of deionized water Equation 1: 197.5 mg/0.800 L=246.9 ppm"}, "[4]": {"tested_on": "toxic cyanobacterium Oscillatoria sp.", "settings": "1.6 g NaDCC per enclosure of about 270 liter (Example 5)"}, "[5]": {"tested_on": "cyanobacterium Oscillatoria sp.", "settings": "1.2 g NaDCC per enclosure (Example 6)"}, "[6]": {"tested_on": "non-motile eggs of the insects", "test": "Concentrated hypochlorite on insect egg hatching", "assay_type": "in vivo", "settings": "250-500 ppm of concentrated hypochlorite", "source_text": "In certain aspects the methods of the present invention target the non-motile eggs of the insects. 250-500 ppm of concentrated hypochlorite caused 95% of egg populations not to hatch."}}, "data": [{"smiles": "O=c1nc([O-])n(Cl)c(=O)n1Cl.[Na+]", "note": "[NaDCC anhydrous, Sodium Dichloroisocyanurate (NaDCC) Anhydrous]", "values": [{"measurement": "state of egg shells", "setting": "[1]; 5000 ppm treatment", "result": "mostly dissolved"}, {"measurement": "state of egg shells", "setting": "[1]; 50,000 ppm treatment", "result": "dissolved and unperceivable"}, {"measurement": "LC95", "setting": "[1]; 25 hrs, 30° C., probit analysis", "result": 93.8, "unit": "ppm"}, {"measurement": "LC95", "setting": "Anopheles stevensi eggs", "result": 270, "unit": "ppm"}, {"measurement": "state of egg shells", "setting": "A. aegypti eggs; 5000 ppm treatment", "result": "mostly dissolved"}, {"measurement": "state of egg shells", "setting": "A. aegypti eggs; 50,000 ppm treatment", "result": "dissolved and unperceivable"}, {"measurement": "LC95", "setting": "A. aegypti eggs; 72 hours, probit analysis", "result": 470, "unit": "ppm"}, {"measurement": "LC95", "setting": "[2]", "result": 205.7, "unit": "ppm"}]}, {"smiles": "O=c1nc([O-])n(Cl)c(=O)n1Cl.[Na+]", "note": "[NaDCC, sodium dichloroisocyanurate]", "values": [{"measurement": "Concentration of NaDCC released", "setting": "[3]; 0.25 hours", "result": 241.5, "unit": "ppm"}, {"measurement": "Response", "setting": "[3]; 0.25 hours, 436 nm, orthotolidine, 800 ml deionized water", "result": 2.053, "unit": "AU"}, {"measurement": "Concentration of NaDCC released", "setting": "[3]; 2.17 hours", "result": 228.4, "unit": "ppm"}, {"measurement": "Response", "setting": "[3]; 2.17 hours", "result": 1.941, "unit": "AU"}, {"measurement": "Concentration of NaDCC released", "setting": "[3]; 9.17 hours", "result": 237.9, "unit": "ppm"}, {"measurement": "Response", "setting": "[3]; 9.17 hours", "result": 2.022, "unit": "AU"}, {"measurement": "Concentration of NaDCC released", "setting": "[3]; 11.00 hours", "result": 215.4, "unit": "ppm"}, {"measurement": "Response", "setting": "[3]; 11.00 hours", "result": 1.831, "unit": "AU"}, {"measurement": "Concentration of NaDCC released", "setting": "[3]; 13.42 hours", "result": 238.8, "unit": "ppm"}, {"measurement": "Response", "setting": "[3]; 13.42 hours", "result": 2.030, "unit": "AU"}, {"measurement": "Concentration of NaDCC released", "setting": "[3]; 15.42 hours", "result": 233.9, "unit": "ppm"}, {"measurement": "Response", "setting": "[3]; 15.42 hours", "result": 1.988, "unit": "AU"}, {"measurement": "Concentration of NaDCC released", "setting": "[3]; 17.67 hours", "result": 231.5, "unit": "ppm"}, {"measurement": "Response", "setting": "[3]; 17.67 hours", "result": 1.968, "unit": "AU"}, {"measurement": "Concentration of NaDCC released", "setting": "[3]; 24.00 hours", "result": 217.6, "unit": "ppm"}, {"measurement": "Response", "setting": "[3]; 24.00 hours", "result": 1.850, "unit": "AU"}, {"measurement": "Concentration of NaDCC released", "setting": "[3]; 36.00 hours", "result": 237.1, "unit": "ppm"}, {"measurement": "Response", "setting": "[3]; 36.00 hours", "result": 2.015, "unit": "AU"}, {"measurement": "effect on cyanobacterial infestation", "setting": "[4]", "result": "total elimination of the cyanobacterial infestation"}, {"measurement": "effect on cyanobacterial infestation", "setting": "[5]", "result": "total elimination of the cyanobacterial infestation"}]}, {"smiles": "OCl", "note": "[hypochlorite]", "values": [{"measurement": "egg populations not hatching", "setting": "[6]", "result": 95, "unit": "%"}]}]}
